Laboratory results taken from publication PMC4537502 (Psychopharmacology, 2015).

Assays:
[1] = plasma radioactivity and metabolite analysis after ^11C-SA4503 injection; assay type: in vivo; conditions: rat, 60 min, saline-treated
Procedure: From these samples, 25 μl of whole blood was collected and plasma (25 μl) was then obtained by centrifugation of the remaining sample (5 min at 13,000×g). Radioactivity in plasma and whole blood was determined using a calibrated gamma counter (CompuGamma CS1282, LKB-Wallac, Turku, Finland).

[2] = Biodistribution of ^11C-SA4503-derived radioactivity; assay type: in vivo; conditions: rat, 80 min after injection, mean ± SEM

Q: What does the source list for COc1ccc(CCN2CCN(CCCc3ccccc3)CC2)cc1OC [^11C-SA4503, 1-[2-(3,4-dimethoxyphenethyl)]-4-(3-phenylpropyl)piperazine]?
A: parent tracer (^11C-SA4503) remaining unchanged in plasma [1]: 55%; Uptake of radioactivity (SUV values), Adipose tissue ([2]; 3 mg/kg pridopidine): 0.27 ± 0.06 SUV; Uptake of radioactivity (SUV values), Adrenal gland ([2]; 3 mg/kg pridopidine): 23.0 ± 4.1 SUV; Uptake of radioactivity (SUV values), Bladder ([2]; 3 mg/kg pridopidine): 0.88 ± 0.38 SUV; Uptake of radioactivity (SUV values), Bone ([2]; 3 mg/kg pridopidine): 0.26 ± 0.03 SUV; Uptake of radioactivity (SUV values), Bone marrow ([2]; 3 mg/kg pridopidine): 2.62 ± 0.67 SUV; Uptake of radioactivity (SUV values), Cerebellum ([2]; 3 mg/kg pridopidine): 0.76 ± 0.17 SUV; Uptake of radioactivity (SUV values), Cerebral cortex ([2]; 3 mg/kg pridopidine): 1.17 ± 0.17 SUV; Uptake of radioactivity (SUV values), Heart ([2]; 3 mg/kg pridopidine): 0.23 ± 0.01 SUV; Uptake of radioactivity (SUV values), Intestine (large) ([2]; 3 mg/kg pridopidine): 1.21 ± 0.12 SUV; Uptake of radioactivity (SUV values), Intestine (small) ([2]; 3 mg/kg pridopidine): 1.93 ± 0.40 SUV; Uptake of radioactivity (SUV values), Kidney ([2]; 3 mg/kg pridopidine): 2.10 ± 0.09 SUV; Uptake of radioactivity (SUV values), Liver ([2]; 3 mg/kg pridopidine): 7.71 ± 0.89 SUV; Uptake of radioactivity (SUV values), Lung ([2]; 3 mg/kg pridopidine): 1.05 ± 0.06 SUV; Uptake of radioactivity (SUV values), Muscle ([2]; 3 mg/kg pridopidine): 0.13 ± 0.01 SUV; Uptake of radioactivity (SUV values), Pancreas ([2]; 3 mg/kg pridopidine): 5.02 ± 0.64 SUV; Uptake of radioactivity (SUV values), Pituitary ([2]; 3 mg/kg pridopidine): 2.13 ± 0.44 SUV; Uptake of radioactivity (SUV values), Plasma ([2]; 3 mg/kg pridopidine): 0.14 ± 0.02 SUV; Uptake of radioactivity (SUV values), Red blood cells ([2]; 3 mg/kg pridopidine): 0.07 ± 0.01 SUV; Uptake of radioactivity (SUV values), Rest brain ([2]; 3 mg/kg pridopidine): 1.10 ± 0.05 SUV; Uptake of radioactivity (SUV values), Spleen ([2]; 3 mg/kg pridopidine): 2.03 ± 0.12 SUV; Uptake of radioactivity (SUV values), Submandibular gland ([2]; 3 mg/kg pridopidine): 4.48 ± 0.64 SUV; Uptake of radioactivity (SUV values), Urine ([2]; 3 mg/kg pridopidine): 1.60 ± 0.87 SUV; Uptake of radioactivity (SUV values), Adipose tissue ([2]; 15 mg/kg pridopidine): 0.36 ± 0.04 SUV; Uptake of radioactivity (SUV values), Adrenal gland ([2]; 15 mg/kg pridopidine): 10.7 ± 4.1 SUV; Uptake of radioactivity (SUV values), Bladder ([2]; 15 mg/kg pridopidine): 0.83 ± 0.22 SUV; Uptake of radioactivity (SUV values), Bone ([2]; 15 mg/kg pridopidine): 0.44 ± 0.05 SUV; Uptake of radioactivity (SUV values), Bone marrow ([2]; 15 mg/kg pridopidine): 2.20 ± 0.77 SUV; Uptake of radioactivity (SUV values), Cerebellum ([2]; 15 mg/kg pridopidine): 0.73 ± 0.03 SUV; Uptake of radioactivity (SUV values), Cerebral cortex ([2]; 15 mg/kg pridopidine): 0.87 ± 0.05 SUV; Uptake of radioactivity (SUV values), Heart ([2]; 15 mg/kg pridopidine): 0.38 ± 0.02 SUV; Uptake of radioactivity (SUV values), Intestine (large) ([2]; 15 mg/kg pridopidine): 0.74 ± 0.08 SUV; Uptake of radioactivity (SUV values), Intestine (small) ([2]; 15 mg/kg pridopidine): 1.70 ± 0.15 SUV; Uptake of radioactivity (SUV values), Kidney ([2]; 15 mg/kg pridopidine): 2.07 ± 0.15 SUV; Uptake of radioactivity (SUV values), Liver ([2]; 15 mg/kg pridopidine): 7.21 ± 0.83 SUV; Uptake of radioactivity (SUV values), Lung ([2]; 15 mg/kg pridopidine): 1.47 ± 0.04 SUV; Uptake of radioactivity (SUV values), Muscle ([2]; 15 mg/kg pridopidine): 0.22 ± 0.02 SUV; Uptake of radioactivity (SUV values), Pancreas ([2]; 15 mg/kg pridopidine): 6.23 ± 0.53 SUV; Uptake of radioactivity (SUV values), Pituitary ([2]; 15 mg/kg pridopidine): 2.75 ± 0.72 SUV; Uptake of radioactivity (SUV values), Plasma ([2]; 15 mg/kg pridopidine): 0.28 ± 0.02 SUV; Uptake of radioactivity (SUV values), Red blood cells ([2]; 15 mg/kg pridopidine): 0.16 ± 0.01 SUV; Uptake of radioactivity (SUV values), Rest brain ([2]; 15 mg/kg pridopidine): 0.65 ± 0.03 SUV; Uptake of radioactivity (SUV values), Spleen ([2]; 15 mg/kg pridopidine): 1.99 ± 0.07 SUV; Uptake of radioactivity (SUV values), Submandibular gland ([2]; 15 mg/kg pridopidine): 5.77 ± 0.39 SUV; Uptake of radioactivity (SUV values), Urine ([2]; 15 mg/kg pridopidine): 0.50 ± 0.09 SUV; Uptake of radioactivity (SUV values), Adipose tissue ([2]; Baseline): 0.26 ± 0.05 SUV; Uptake of radioactivity (SUV values), Adrenal gland ([2]; Baseline): 25.7 ± 3.6 SUV; Uptake of radioactivity (SUV values), Bladder ([2]; Baseline): 0.70 ± 0.10 SUV; Uptake of radioactivity (SUV values), Bone ([2]; Baseline): 0.44 ± 0.14 SUV; Uptake of radioactivity (SUV values), Bone marrow ([2]; Baseline): 2.57 ± 0.47 SUV; Uptake of radioactivity (SUV values), Cerebellum ([2]; Baseline): 1.95 ± 0.12 SUV; Uptake of radioactivity (SUV values), Cerebral cortex ([2]; Baseline): 1.97 ± 0.15 SUV; Uptake of radioactivity (SUV values), Heart ([2]; Baseline): 0.33 ± 0.04 SUV; Uptake of radioactivity (SUV values), Intestine (large) ([2]; Baseline): 1.72 ± 0.13 SUV; Uptake of radioactivity (SUV values), Intestine (small) ([2]; Baseline): 2.33 ± 0.28 SUV; Uptake of radioactivity (SUV values), Kidney ([2]; Baseline): 4.19 ± 0.20 SUV; Uptake of radioactivity (SUV values), Liver ([2]; Baseline): 6.47 ± 0.63 SUV; Uptake of radioactivity (SUV values), Lung ([2]; Baseline): 1.98 ± 0.18 SUV; Uptake of radioactivity (SUV values), Muscle ([2]; Baseline): 0.15 ± 0.02 SUV; Uptake of radioactivity (SUV values), Pancreas ([2]; Baseline): 4.95 ± 0.74 SUV; Uptake of radioactivity (SUV values), Pituitary ([2]; Baseline): 3.24 ± 0.03 SUV; Uptake of radioactivity (SUV values), Plasma ([2]; Baseline): 0.11 ± 0.02 SUV; Uptake of radioactivity (SUV values), Red blood cells ([2]; Baseline): 0.10 ± 0.03 SUV; Uptake of radioactivity (SUV values), Rest brain ([2]; Baseline): 2.23 ± 0.31 SUV; Uptake of radioactivity (SUV values), Spleen ([2]; Baseline): 2.62 ± 0.27 SUV; Uptake of radioactivity (SUV values), Submandibular gland ([2]; Baseline): 3.60 ± 0.18 SUV; Uptake of radioactivity (SUV values), Urine ([2]; Baseline): 0.35 ± 0.16 SUV
